For this test, the target named is T1, JAK3 (Homo sapiens, UniProt P52333).
T1 sequence (P52333 1-1124): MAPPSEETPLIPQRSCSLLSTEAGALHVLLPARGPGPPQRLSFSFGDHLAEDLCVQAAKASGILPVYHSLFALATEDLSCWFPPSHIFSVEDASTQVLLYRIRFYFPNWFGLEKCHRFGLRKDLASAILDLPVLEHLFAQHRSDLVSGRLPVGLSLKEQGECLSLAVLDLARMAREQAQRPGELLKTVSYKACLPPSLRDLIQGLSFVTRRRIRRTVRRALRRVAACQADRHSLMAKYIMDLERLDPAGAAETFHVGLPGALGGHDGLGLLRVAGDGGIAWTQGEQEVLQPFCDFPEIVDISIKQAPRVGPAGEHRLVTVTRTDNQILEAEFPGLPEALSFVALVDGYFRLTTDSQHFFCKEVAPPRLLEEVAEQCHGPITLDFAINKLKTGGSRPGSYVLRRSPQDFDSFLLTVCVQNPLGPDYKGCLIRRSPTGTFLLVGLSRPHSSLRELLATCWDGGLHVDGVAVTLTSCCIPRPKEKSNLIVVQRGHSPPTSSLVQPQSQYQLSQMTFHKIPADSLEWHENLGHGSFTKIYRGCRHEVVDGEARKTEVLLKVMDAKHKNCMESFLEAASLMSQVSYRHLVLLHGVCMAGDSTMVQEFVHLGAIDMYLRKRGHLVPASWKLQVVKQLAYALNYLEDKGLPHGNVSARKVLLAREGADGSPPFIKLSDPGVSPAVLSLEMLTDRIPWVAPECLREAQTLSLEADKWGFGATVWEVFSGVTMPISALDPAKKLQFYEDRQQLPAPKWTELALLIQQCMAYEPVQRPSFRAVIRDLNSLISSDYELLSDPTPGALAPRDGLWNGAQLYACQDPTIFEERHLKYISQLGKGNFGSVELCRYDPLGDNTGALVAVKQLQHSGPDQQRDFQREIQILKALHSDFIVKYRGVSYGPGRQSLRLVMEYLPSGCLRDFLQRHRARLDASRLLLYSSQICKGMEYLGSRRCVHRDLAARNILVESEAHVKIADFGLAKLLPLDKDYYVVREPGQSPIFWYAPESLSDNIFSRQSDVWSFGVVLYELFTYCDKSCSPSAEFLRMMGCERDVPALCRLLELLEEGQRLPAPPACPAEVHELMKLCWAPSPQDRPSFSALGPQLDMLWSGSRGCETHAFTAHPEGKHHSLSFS
The test can be described thus: JAK3 Inhibition Assay (33P incorporation into poly(Glu)4Tyr). The class given is biochemical. The settings on record: for pKi: 1 nM JAK3, 5 μM ATP, 1 μM poly(Glu)4Tyr, 25° C. The method, then:
Compounds were screened for their ability to inhibit JAK3 using the assay shown below. Reactions were carried out in a kinase buffer containing 100 mM HEPES (pH 7.4), 1 mM DTT, 10 mM MgCl2, 25 mM NaCl, and 0.01% BSA. Substrate concentrations in the assay were 5 μM ATP (200 uCi/μmole ATP) and 1 μM poly(Glu)4Tyr. Reactions were carried out at 25° C. and 1 nM JAK3.
To each well of a 96 well polycarbonate plate was added 1.5 μl of a candidate JAK3 inhibitor along with 50 μlof kinase buffer containing 2 μM poly(Glu)4Tyr and 10 μM ATP. This was then mixed and 50 μl of kinase buffer containing 2 nM JAK3 enzyme was added to start the reaction. After 20 minutes at room temperature (25° C.), the reaction was stopped with 50 μl of 20% trichloroacetic acid (TCA) that also contained 0.4 mM ATP. The entire contents of each well were then transferred to a 96 well glass fiber filter plate using a TomTek Cell Harvester. After washing, 60 μl of scintillation fluid was added and ^33P incorporation detected on a Perkin Elmer TopCount.

pKi: −log10 of the molar value. Some results are limits rather than exact numbers.

One may read the pKi as −log10 of the Ki, conventionally taken in molar units.

`CC(C)[C@@H](Nc1nc(-c2ccc(=O)[nH]c2)ncc1F)C(=O)NCC(F)(F)F` [Compound 87]: the “inhibition of JAK3 at concentrations of 50 μM” value (“inhibition of JAK3 … of 50 μM” below) was “did not inhibit”.

For the molecule `CC(C)(Nc1nc(-c2c[nH]c(C(=O)N3CCCC3)c2)ncc1F)C(=O)NCC(F)(F)F` [Compound 97], the pKi is ≥ 6.00.

`O=C(CNc1nc(-c2cccnc2F)ncc1F)NCC(F)(F)F` [Compound 8] had a pKi of 4.30 to 5.00.

For the molecule `COc1ccc(-c2ncc(F)c(NC(C)(C)C(=O)NCC(F)(F)F)n2)cc1` [Compound 124], the “inhibition of JAK3 … of 50 μM” value was “did not inhibit”.

On to `COc1ccc(Nc2nc(N)n(-c3nccc(N[C@H](C(=O)NCC(F)(F)F)C(C)C)n3)n2)cc1` [Compound 42], for which the pKi was ≥ 6.00.

Consider `Nc1nc(Nc2cccnc2)nn1-c1ncc(F)c(N2CCC[C@@H]2C(=O)NCC(F)(F)F)n1` [Compound 46], for which the “inhibition of JAK3 at concentrations of 5.0 μM” value (“inhibition of JAK3 … of 5.0 μM” for short) is reported as “did not inhibit”.

Molecule `CNC(=O)c1cc(-c2nccc(N[C@@H](C(=O)NCC(F)(F)F)C(C)C)n2)c[nH]1` [Compound 109] gave a pKi of 5.00 to 6.00.

Regarding `COc1ccc(Nc2nc(N)n(-c3ncc(F)c(N4CCC[C@@H]4C(=O)NCC(F)(F)F)n3)n2)c(C)c1` [Compound 40], the “inhibition of JAK3 … of 5.0 μM” value is listed as “did not inhibit”.

With `CC(C)[C@@H](Nc1ccnc(-c2c[nH]c3ccc(Cl)cc23)n1)C(=O)NCC(F)(F)F` [Compound 161], the pKi was 4.30 to 5.00.

`O=C(NCC(F)(F)F)[C@H]1CCCN1c1nc(-c2ccc3ncccc3c2)ncc1F` [Compound 89] showed a pKi of 4.30 to 5.00.

Turning to `COc1ccc(Nc2nc(N)n(-c3ncc(F)c(NCC(=O)NCC(F)(F)F)n3)n2)cc1` [Compound 58], the pKi was 5.00 to 6.00.

In the case of `C[C@@H](Nc1nc(-c2cccnc2)ncc1F)C(=O)NCC(F)(F)F` [Compound 20], the pKi is 4.30 to 5.00.

For the molecule `COc1ccc(-c2ncc(F)c(NC(C)(C)C(=O)NCC(F)(F)F)n2)cn1` [Compound 69], the “inhibition of JAK3 … of 50 μM” value was “did not inhibit”.

Turning to `Nc1cc(-c2ncc(F)c(N3CCC[C@@H]3C(=O)NCC(F)(F)F)n2)c[nH]c1=O` [Compound 138], the “inhibition of JAK3 … of 50 μM” value is “did not inhibit”.

With `Nc1ncccc1-c1ncc(F)c(NCC(=O)NCC(F)(F)F)n1` [Compound 29], the pKi was ≥ 6.00.

`CN(C)C(=O)c1cc(-c2ncc(F)c(N3CCC[C@@H]3C(=O)NCC(F)(F)F)n2)c[nH]1` [Compound 129]: the pKi was 4.30 to 5.00.

Turning to `Nc1nc(NCC2CCCCC2)nn1-c1ncc(F)c(N2CCC[C@@H]2C(=O)NCC(F)(F)F)n1` [Compound 48], the “inhibition of JAK3 … of 5.0 μM” value is listed as “did not inhibit”.

On to `O=C(O)c1cc(-c2ncc(F)c(N3CCC[C@@H]3C(=O)NCC(F)(F)F)n2)c[nH]1` [Compound 127], for which the “inhibition of JAK3 … of 50 μM” value is recorded as “did not inhibit”.

On to `COc1ccc(-c2ncc(F)c(N[C@@H](C(=O)NCC(F)(F)F)C(C)C)n2)cc1` [Compound 145], for which the “inhibition of JAK3 … of 50 μM” value is recorded as “did not inhibit”.

In turn, `CC(C)[C@@H](Nc1nc(-c2ccc3nccnc3c2)ncc1F)C(=O)NCC(F)(F)F` [Compound 168] showed a negative-log Ki (pKi) of 5.00 to 6.00.

For the molecule `CC(C)[C@@H](Nc1ccnc(-c2ccc(=O)[nH]c2)n1)C(=O)NCC(F)(F)F` [Compound 85], the pKi was 4.30 to 5.00.

As for `COc1ccc(-c2ncc(F)c(NCCC(=O)NCC(F)(F)F)n2)cn1` [Compound 14], the “inhibition of JAK3 … of 50 μM” value is given as “did not inhibit”.

Turning to `CC(C)NC(=O)c1cc(-c2ncc(F)c(N3CCC[C@@H]3C(=O)NCC(F)(F)F)n2)c[nH]1` [Compound 117], the “inhibition of JAK3 … of 50 μM” value is “did not inhibit”.

In turn, `CC(C)[C@@H](Nc1ccnc(-c2ccc3ncccc3c2)n1)C(=O)NCC(F)(F)F` [Compound 72] showed a pKi of 5.00 to 6.00.

Take `O=C(NCC(F)(F)F)[C@H]1CCCN1c1nc(-c2c[nH]c(C(=O)N3CC=CC3)c2)ncc1F` [Compound 120]: the pKi was ≥ 6.00.

On to `Nc1nc(Nc2ccc(F)cc2)nn1-c1cc(N2CCC[C@@H]2C(=O)NCC(F)(F)F)ncn1` [Compound 37], for which the pKi was ≥ 6.00.

Regarding `CC(C)(Nc1nc(-c2ccc3nccnc3c2)ncc1F)C(=O)NCC(F)(F)F` [Compound 162], the pKi is ≥ 6.00.

With `CC(C)Nc1nc(N)n(-c2ncc(F)c(N3CCC[C@@H]3C(=O)NCC(F)(F)F)n2)n1` [Compound 53], the “inhibition of JAK3 … of 5.0 μM” value is “did not inhibit”.

Regarding `O=C(CCNc1nc(-c2cccnc2F)ncc1F)NCC(F)(F)F` [Compound 12], the “inhibition of JAK3 … of 50 μM” value is “did not inhibit”.

Consider `Nc1nc(Nc2ccc([C@H]3CC[C@H](N4CCOCC4)CC3)cc2)nn1-c1ncc(F)c(N2CCC[C@@H]2C(=O)NCC(F)(F)F)n1` [Compound 49], for which the negative logarithm of the Ki (pKi) was 5.00 to 6.00.

Molecule `CC(=O)Nc1nc2ccc(-c3nccc(N[C@@H](C(=O)NCC(F)(F)F)C(C)C)n3)cc2s1` [Compound 65] showed a pKi of 5.00 to 6.00.

For the molecule `CN(C)C(=O)c1cc(-c2nccc(NC(C)(C)C(=O)NCC(F)(F)F)n2)c[nH]1` [Compound 132], the pKi was ≥ 6.00.

Regarding `O=C(NCC(F)(F)F)[C@H]1CCCN1c1nc(-c2cccnc2F)ncc1F` [Compound 21], the “inhibition of JAK3 … of 50 μM” value is listed as “did not inhibit”.

The molecule `Nc1ncccc1-c1ncc(F)c(NCCC(=O)NCC(F)(F)F)n1` [Compound 30] had a negative-log Ki (pKi) of 5.00 to 6.00.

Consider `Nc1nc2ccc(-c3nccc(N4CCC[C@@H]4C(=O)NCC(F)(F)F)n3)cc2s1` [Compound 61], for which the pKi was 5.00 to 6.00.

In turn, `O=C(NCC(F)(F)F)[C@H]1CCCN1c1ccnc(-c2ccc3c(c2)OCO3)n1` [Compound 59] had a pKi of 5.00 to 6.00.

In turn, `O=C(NCC(F)(F)F)[C@H]1CCCN1c1ccnc(-c2ccc(O)cc2)n1` [Compound 147] showed a pKi of 5.00 to 6.00.

Molecule `C[C@H](Nc1nc(-c2ccnc(Cl)c2)ncc1F)C(=O)NCC(F)(F)F` [Compound 2] had a negative-log Ki (pKi) of 4.30 to 5.00.

The molecule `CC(C)(Nc1ccnc(-c2ccc(=O)[nH]c2)n1)C(=O)NCC(F)(F)F` [Compound 86] had a negative-log Ki (pKi) of 5.00 to 6.00.

`O=C(NCC(F)(F)F)[C@H]1CCCN1c1nc(-c2ccc(O)cc2)ncc1F` [Compound 151] showed a negative logarithm of the Ki (pKi) of 4.30 to 5.00.

In turn, `Nc1nc(Nc2ccc(F)cc2)nn1-c1ncc(F)c(N2CCC[C@@H]2C(=O)NCC(F)(F)F)n1` [Compound 44] gave a pKi of 5.00 to 6.00.

`COc1ccc(Nc2nc(N)n(-c3nccc(NC(C)(C)C(=O)NCC(F)(F)F)n3)n2)cc1` [Compound 38] had a pKi of 5.00 to 6.00.

The molecule `CC(C)[C@@H](Nc1nc(-c2c[nH]c(=O)c(N)c2)ncc1F)C(=O)NCC(F)(F)F` [Compound 137] gave a pKi of 4.30 to 5.00.

In the case of `O=C(CCNc1nc(-c2ccc(F)nc2)ncc1F)NCC(F)(F)F` [Compound 13], the “inhibition of JAK3 … of 50 μM” value is “did not inhibit”.

The molecule `O=C(CCNc1nc(-c2cccnc2)ncc1F)NCC(F)(F)F` [Compound 15] gave a pKi of 4.30 to 5.00.

Turning to `CC(C)[C@@H](Nc1ccnc(-c2c[nH]c(C(=O)N3CCCC3)c2)n1)C(=O)NCC(F)(F)F` [Compound 113], the pKi was 5.00 to 6.00.

`CC(=O)Nc1nc2ccc(-c3nccc(NC(C)(C)C(=O)NCC(F)(F)F)n3)cc2s1` [Compound 82]: the pKi is 5.00 to 6.00.

Consider `C[C@H](Nc1cc(-n2nc(Nc3ccc(F)cc3)nc2N)ncn1)C(=O)NCC(F)(F)F` [Compound 33], for which the pKi is ≥ 6.00.

`CC(C)[C@@H](Nc1nc(-c2c[nH]c(C(=O)NCc3ccccc3)c2)ncc1F)C(=O)NCC(F)(F)F` [Compound 104] showed a pKi of 5.00 to 6.00.

For `O=C(NCC(F)(F)F)[C@H]1CCCN1c1ccnc(-c2ccc(=O)[nH]c2)n1` [Compound 83], the pKi is 4.30 to 5.00.
